Reference: patent US9675592B2, “Methods and compositions for bacteria infections” (priority 2013, dated 2017)
Read-outs that look alike come from different tables or passages of the source.

Experiments:
[1] = tested on: test strain 923 pPvra-lux (USA300 MRSA); assay: Primary screen, relative growth in presence of oxacillin; conditions: compound 10 μM with oxacillin 2 μg/mL, absorbance 24 h, <0.50 = dead cells = hit
[2] = tested on: vraSR promoter (Pvra-lux reporter in strain 923); assay: Primary screen, relative luminescence (vraSR expression)
[3] = primary screen, compound 10 μM with oxacillin 2 μg/mL, <0.50 = vraSR repressed = hit

Row | SMILES | RG avg (relative growth) [1] | RL avg (relative luminescence) [2, 3] | RL avg (relative luminescence) [2]
1 | O=C(Nc1nnc(-c2ccc(C(F)(F)F)cc2)o1)c1cc2ccccc2o1 [F1374-2134] | 0.20 | 0.38 | –
2 | Cc1ccc(C)c(-c2nnc(NC(=O)c3cccc(Br)c3)o2)c1 [F2518-303] | 0.00 | −0.02 | –
3 | O=C(Nc1nnc(Cc2ccccc2)o1)c1cc(Cl)sc1Cl [F2368-63] | −0.01 | −0.02 | –
4 | O=C(Nc1nnc(-c2ccc(F)cc2)o1)c1ccc(F)cc1 [F1374-116] | 0.00 | 0.34 | –
5 | O=C(Nc1nnc(-c2ccc(Cl)s2)o1)c1ccccc1Oc1ccccc1 [F1374-1149] | −0.01 | 0.28 | –
6 | O=C(Nc1nnc(C2COc3ccccc3O2)o1)c1ccc(S(=O)(=O)N2CCCc3ccccc32)cc1 (centres unmarked) [F0608-715] | −0.01 | −0.05 | –
7 | O=C(Nc1nnc(-c2ccco2)o1)c1ccc(-c2ccccc2)cc1 [F0608-410] | −0.07 | −0.07 | –
8 | COc1cccc(-c2nnc(NC(=O)c3cccc(C(F)(F)F)c3)o2)c1 [F1374-352] | 0.03 | 0.41 | –
9 | O=C(Nc1nnc(-c2ccc(Cl)s2)o1)c1cccc(F)c1 [F1374-1062] | 0.01 | 0.46 | –
10 | COc1cc(OC)cc(-c2nnc(NC(=O)c3ccc(Cl)cc3Cl)o2)c1 [F1374-651] | 0.04 | 0.38 | –
11 | O=C(Nc1nnc(-c2ccc(Br)s2)o1)c1ccc(F)cc1 [F5093-12] | 0.01 | −0.01 | –
12 | CCOc1cc(C(=O)Nc2nnc(-c3ccccc3SC)o2)cc(OCC)c1OCC [F2645-99] | 0.09 | 0.43 | –
13 | COc1cc(-c2nnc(NC(=O)c3ccc(S(=O)(=O)N4CCc5ccccc5C4)cc3)o2)cc(OC)c1OC [F0559-321] | −0.03 | −0.09 | –
14 | O=C(Nc1nnc(-c2ccncc2)o1)c1ccc(-c2ccccc2)cc1 [F0608-1080] | 0.03 | −0.04 | –
15 | COc1ccccc1-c1nnc(NC(=O)c2sc3ccccc3c2Cl)o1 [F1374-253] | 0.04 | 0.32 | –
16 | O=C(Nc1nnc(-c2ccco2)o1)c1ccc(Oc2ccccc2)cc1 [F0608-491] | −0.06 | −0.11 | –
17 | O=C(Nc1nnc(-c2ccco2)o1)c1cc(-c2ccccc2)nc2ccccc12 [F0608-448] | 0.19 | −0.04 | –
18 | COc1ccc(-c2nnc(NC(=O)c3cccc(C(F)(F)F)c3)o2)c(OC)c1 [F1374-562] | 0.02 | 0.38 | –
19 | COc1cccc(-c2nnc(NC(=O)c3ccc(S(=O)(=O)N(Cc4ccccc4)C(C)C)cc3)o2)c1 [F0559-178] | −0.06 | −0.07 | –
20 | COc1cccc(-c2nnc(NC(=O)c3ccc(S(=O)(=O)N(C)C4CCCCC4)cc3)o2)c1 [F0559-158] | 0.03 | −0.07 | –
21 | O=C(Nc1nnc(-c2ccco2)o1)c1ccc(S(=O)(=O)N2CCCc3ccccc32)cc1 [F0608-447] | −0.05 | −0.02 | –
22 | O=C(Nc1nnc(-c2cc(Cl)sc2Cl)o1)c1ccc(F)cc1F [F1374-2707] | 0.00 | 0.32 | –
23 | COc1ccccc1-c1nnc(NC(=O)c2ccc(-c3ccccc3)cc2)o1 [F1374-220] | 0.01 | 0.35 | –
24 | Cc1ccc(-c2nnc(NC(=O)c3cccc(C(F)(F)F)c3)o2)c(C)c1 [F2518-189] | 0.01 | −0.02 | –
25 | CCC1CCCCN1S(=O)(=O)c1ccc(C(=O)Nc2nnc(Cc3ccc(OC)cc3)o2)cc1 (centres unmarked) [F2368-619] | −0.03 | 0.01 | –
26 | Cc1ccc(-c2nnc(NC(=O)c3ccc(C(=O)c4ccccc4)cc3)o2)c(C)c1 [F2518-168] | −0.03 | −0.07 | –

Row | SMILES | RG avg (relative growth) [1] | RL avg (relative luminescence) [2, 3] | RL avg (relative luminescence) [2]
27 | COc1ccc(OCc2noc(CNC(=O)Nc3ccc(Cl)c(Cl)c3)n2)cc1 [F5882-3269] | −0.01 | −0.02 | –
28 | COc1cccc2cc(-c3nnc(NC(=O)c4ccc5ncsc5c4)o3)oc12 [F2273-114] | 0.26 | 0.26 | –
29 | O=C(Nc1nnc(-c2ccc(Br)s2)o1)c1ccc(Cl)s1 [F5093-40] | 0.03 | −0.02 | –
30 | O=C(Nc1nnc(-c2ccc(F)cc2)o1)c1nc2ccccc2s1 [F1374-138] | 0.00 | 0.40 | –
31 | COc1ccc(Cc2nnc(NC(=O)c3ccc(S(=O)(=O)N(C)Cc4ccccc4)cc3)o2)cc1 [F2368-617] | −0.04 | −0.07 | –
32 | COc1cccc(-c2nnc(NC(=O)c3ccc(Cl)cc3)o2)c1 [F1374-320] | 0.04 | 0.32 | –
33 | O=C(Nc1nnc(-c2cccnc2)o1)c1cccc(Br)c1 [F0608-950] | −0.01 | −0.14 | –
34 | O=C(Nc1nnc(-c2ccc(F)cc2)o1)c1ccc(Oc2ccccc2)cc1 [F1374-188] | 0.02 | 0.33 | –
35 | O=C(Nc1nnc(-c2ccc3c(c2)CCCC3)o1)c1ccc2c(c1)OCCO2 [F0608-601] | −0.05 | −0.12 | –
36 | CCOc1ccc(-c2nnc(NC(=O)c3c(-c4ccccc4Cl)noc3C)o2)cc1 [F2517-329] | −0.02 | −0.11 | –
37 | O=C(Nc1nnc(-c2ccc(F)cc2)o1)c1ccc(Br)s1 [F1374-140] | 0.02 | 0.35 | –
38 | O=C(Nc1nnc(-c2cccnc2)o1)c1cc(Cl)cc(Cl)c1 [F0608-1062] | −0.04 | −0.10 | –
39 | O=C(Nc1nnc(-c2ccccc2Cl)o1)c1ccc(Cl)s1 [F1374-36] | 0.04 | 0.35 | –
40 | Cc1ccc(C)c(-c2nnc(NC(=O)c3ccc4ncsc4c3)o2)c1 [F2518-414] | 0.01 | −0.02 | –
41 | O=C(Nc1nnc(-c2ccc3c(c2)CCCC3)o1)c1ccc(Cl)cc1Cl [F0608-661] | 0.11 | −0.04 | –
42 | O=C(Nc1nnc(-c2cc(Cl)sc2Cl)o1)c1cccc(C(F)(F)F)c1 [F1374-2671] | 0.03 | 0.35 | –
43 | O=C(COc1ccc(Cl)cc1Cl)Nc1nnc(-c2ccc(Cl)s2)o1 [F1374-1102] | 0.13 | – | 0.49
44 | O=C(Nc1nnc(-c2ccc3c(c2)CCCC3)o1)c1ccc(Cl)s1 [F0608-662] | −0.07 | −0.10 | –
45 | CC(C)Cn1c(N)c(C(=O)NCc2cccs2)c2nc3ccccc3nc21 [F3225-3356] | 0.39 | 0.01 | –
46 | O=C(Nc1nnc(-c2ccc(Br)cc2)o1)c1cccc(Br)c1 [F2518-447] | 0.02 | 0.00 | –
47 | O=C(Nc1nnc(-c2ccc(Cl)s2)o1)c1ccc(-c2ccccc2)cc1 [F1374-1060] | 0.17 | 0.46 | –
48 | O=C(Nc1nnc(-c2ccc3c(c2)OCCO3)o1)c1cc(-c2ccccc2)nc2ccccc12 [F0608-46] | −0.06 | −0.10 | –
49 | O=C(Nc1nc(-c2ccccn2)cs1)c1cc(Cl)ccc1Cl [F0447-277] | −0.06 | −0.11 | –
50 | CSc1ccccc1-c1nnc(NC(=O)c2ccc(F)cc2)o1 [F2645-12] | 0.41 | 0.51 | –
51 | COc1cccc2cc(C(=O)Nc3nnc(-c4ccc(Cl)cc4Cl)o3)oc12 [F2518-1563] | 0.00 | −0.16 | –
52 | CC1(C)COCN1S(=O)(=O)c1ccc(C(=O)Nc2nnc(-c3ccc(Cl)s3)o2)cc1 [F0559-390] | −0.06 | −0.11 | –
